Test results as given in patent publication US10457655B2, “Compounds and compositions for inhibition of FASN” (FORMA Therapeutics, Inc., priority 2013, dated 2019).

target: FASN enzyme (Homo sapiens, UniProt P49327); experiment: Enzymatic Assay for FASN Inhibitors; format: biochemical
How it was run: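 40 nM FASN preincubated with compound 60 min at 25° C in HEPES pH 7.3 buffer with 0.04% Triton X-100. Then 20 μM acetyl-CoA, 60 μM malonyl-CoA and 100 μM NADPH added for 90 min, quenched with CPM thiol probe; fluorescence 360/530 nm, IC50 by four-parameter fit.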

Sequence of FASN enzyme (P49327 whole entry): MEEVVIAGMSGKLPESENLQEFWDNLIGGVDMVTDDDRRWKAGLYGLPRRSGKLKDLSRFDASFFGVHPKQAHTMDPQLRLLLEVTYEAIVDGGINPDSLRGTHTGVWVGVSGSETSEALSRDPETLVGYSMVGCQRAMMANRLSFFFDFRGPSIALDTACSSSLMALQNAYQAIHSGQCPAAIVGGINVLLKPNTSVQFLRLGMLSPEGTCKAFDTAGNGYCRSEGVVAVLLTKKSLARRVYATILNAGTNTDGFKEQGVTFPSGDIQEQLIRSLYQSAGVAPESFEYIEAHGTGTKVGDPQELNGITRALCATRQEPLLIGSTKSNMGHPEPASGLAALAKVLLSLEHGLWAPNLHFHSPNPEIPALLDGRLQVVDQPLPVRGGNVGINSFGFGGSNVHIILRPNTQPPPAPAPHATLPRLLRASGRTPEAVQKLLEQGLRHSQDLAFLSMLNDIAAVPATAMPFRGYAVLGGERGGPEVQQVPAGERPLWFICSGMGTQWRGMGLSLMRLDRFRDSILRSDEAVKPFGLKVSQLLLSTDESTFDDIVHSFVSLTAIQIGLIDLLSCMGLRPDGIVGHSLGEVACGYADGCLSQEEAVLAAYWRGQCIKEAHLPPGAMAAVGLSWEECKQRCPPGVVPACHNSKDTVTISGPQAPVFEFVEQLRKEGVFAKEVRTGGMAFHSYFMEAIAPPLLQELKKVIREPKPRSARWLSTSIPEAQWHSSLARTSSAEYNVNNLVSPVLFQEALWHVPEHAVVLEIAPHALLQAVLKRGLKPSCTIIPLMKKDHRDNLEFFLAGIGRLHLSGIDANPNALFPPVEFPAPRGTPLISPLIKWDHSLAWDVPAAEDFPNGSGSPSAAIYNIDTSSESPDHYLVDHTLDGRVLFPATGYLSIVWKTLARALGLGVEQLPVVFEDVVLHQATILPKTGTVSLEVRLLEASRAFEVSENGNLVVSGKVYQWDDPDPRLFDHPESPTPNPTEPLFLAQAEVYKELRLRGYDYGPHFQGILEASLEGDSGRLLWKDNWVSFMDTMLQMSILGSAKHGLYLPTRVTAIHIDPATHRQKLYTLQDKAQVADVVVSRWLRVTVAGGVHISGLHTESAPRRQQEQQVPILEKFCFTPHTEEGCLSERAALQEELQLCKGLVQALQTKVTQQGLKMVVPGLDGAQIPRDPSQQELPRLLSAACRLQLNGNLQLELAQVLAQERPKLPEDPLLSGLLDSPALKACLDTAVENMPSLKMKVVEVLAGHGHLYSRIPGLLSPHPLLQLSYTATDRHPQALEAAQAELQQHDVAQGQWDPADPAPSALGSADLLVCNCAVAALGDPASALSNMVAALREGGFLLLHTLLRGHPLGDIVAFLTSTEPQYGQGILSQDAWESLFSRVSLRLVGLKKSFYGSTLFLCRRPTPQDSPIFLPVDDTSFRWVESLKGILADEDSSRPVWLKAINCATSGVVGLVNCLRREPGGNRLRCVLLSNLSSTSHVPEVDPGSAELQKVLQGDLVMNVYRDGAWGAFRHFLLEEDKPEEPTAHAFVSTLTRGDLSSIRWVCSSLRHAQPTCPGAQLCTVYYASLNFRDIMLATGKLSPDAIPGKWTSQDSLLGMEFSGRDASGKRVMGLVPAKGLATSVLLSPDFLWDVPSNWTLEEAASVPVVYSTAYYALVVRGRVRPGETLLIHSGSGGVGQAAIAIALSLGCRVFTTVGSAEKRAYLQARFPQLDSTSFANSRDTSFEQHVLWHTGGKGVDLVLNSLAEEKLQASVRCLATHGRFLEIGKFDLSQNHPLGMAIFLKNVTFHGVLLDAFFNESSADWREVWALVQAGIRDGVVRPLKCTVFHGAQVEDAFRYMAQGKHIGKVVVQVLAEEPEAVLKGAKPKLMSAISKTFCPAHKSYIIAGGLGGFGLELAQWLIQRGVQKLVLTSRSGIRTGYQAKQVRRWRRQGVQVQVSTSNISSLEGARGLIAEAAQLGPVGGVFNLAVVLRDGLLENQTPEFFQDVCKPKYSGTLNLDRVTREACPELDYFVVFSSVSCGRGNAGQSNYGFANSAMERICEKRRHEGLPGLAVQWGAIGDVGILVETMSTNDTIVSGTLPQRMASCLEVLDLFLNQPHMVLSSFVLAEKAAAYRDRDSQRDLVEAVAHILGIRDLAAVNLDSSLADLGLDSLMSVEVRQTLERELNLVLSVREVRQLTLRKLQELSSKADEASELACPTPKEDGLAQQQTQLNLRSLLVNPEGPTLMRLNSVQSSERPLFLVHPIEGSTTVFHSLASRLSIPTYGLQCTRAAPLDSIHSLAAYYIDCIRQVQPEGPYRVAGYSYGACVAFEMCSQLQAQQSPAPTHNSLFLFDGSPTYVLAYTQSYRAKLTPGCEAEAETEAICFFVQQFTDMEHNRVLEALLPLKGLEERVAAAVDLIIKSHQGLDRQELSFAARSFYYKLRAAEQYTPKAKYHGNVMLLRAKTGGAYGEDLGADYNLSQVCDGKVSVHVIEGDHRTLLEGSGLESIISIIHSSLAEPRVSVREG

IC50, < 500 nM:
Cc1nn(C)c2ccc(-c3ccc(C(=O)N4CCN(C(=O)C5(O)CC5)CC4)cc3Cl)cc12 [1-{4-[3-chloro-4-(1,3-dimethyl-1H-indazol-5-yl)benzoyl]piperazine-1-carbonyl}cyclopropan-1-ol], Cn1cnc2cc(-c3ccc(C(=O)N4CCN(C(=O)C5(O)CC5)CC4)cc3Cl)ccc21 [1-{4-[3-chloro-4-(1-methyl-1H-1,3-benzodiazol-5-yl)benzoyl]piperazine-1-carbonyl}cyclopropan-1-ol], Cn1ncc2ccc(-c3ccc(C(=O)N4CCN(C(=O)C5(O)CC5)CC4)cc3Cl)cc21 [1-{4-[3-chloro-4-(1-methyl-1H-indazol-6-yl)benzoyl]piperazine-1-carbonyl}cyclopropan-1-ol], Cn1cc2ccc(-c3ccc(C(=O)N4CCN(C(=O)C5(O)CC5)CC4)cc3Cl)cc2n1 [1-{4-[3-chloro-4-(2-methyl-2H-indazol-6-yl)benzoyl]piperazine-1-carbonyl}cyclopropan-1-ol], O=C(c1ccc(-c2ccc(Cl)cc2F)c(Cl)c1)N1CCN(C(=O)C2(O)CC2)CC1 [1-{4-[3-chloro-4-(4-chloro-2-fluorophenyl)benzoyl]piperazine-1-carbonyl}cyclopropan-1-ol], O=C(c1ccc(-c2cc(Cl)ccc2F)c(Cl)c1)N1CCN(C(=O)C2(O)CC2)CC1 [1-{4-[3-chloro-4-(5-chloro-2-fluorophenyl)benzoyl]piperazine-1-carbonyl}cyclopropan-1-ol], O=C(c1ccc(-c2nc3ccc(Cl)cc3o2)c(Cl)c1)N1CCN(C(=O)C2(O)CC2)CC1 [1-{4-[3-chloro-4-(6-chloro-1,3-benzoxazol-2-yl)benzoyl]piperazine-1-carbonyl}cyclopropan-1-ol], O=C(c1ccc(-c2nc3ccc(F)cc3o2)c(Cl)c1)N1CCN(C(=O)C2(O)CC2)CC1 [1-{4-[3-chloro-4-(6-fluoro-1,3-benzoxazol-2-yl)benzoyl]piperazine-1-carbonyl}cyclopropan-1-ol], Cn1cnc2cc(-c3ccc(C(=O)N4CCN(C(=O)C5(O)CC5)CC4)cc3F)ccc21 [1-{4-[3-fluoro-4-(1-methyl-1H-1,3-benzodiazol-5-yl)benzoyl]piperazine-1-carbonyl}cyclopropan-1-ol], Cn1ncc2ccc(-c3ccc(C(=O)N4CCN(C(=O)C5(O)CC5)CC4)cc3F)cc21 [1-{4-[3-fluoro-4-(1-methyl-1H-indazol-6-yl)benzoyl]piperazine-1-carbonyl}cyclopropan-1-ol], Cn1cc2ccc(-c3ccc(C(=O)N4CCN(C(=O)C5(O)CC5)CC4)cc3F)cc2n1 [1-{4-[3-fluoro-4-(2-methyl-2H-indazol-6-yl)benzoyl]piperazine-1-carbonyl}cyclopropan-1-ol], O=C(c1ccc(-c2nc3ccc(F)cc3o2)c(F)c1)N1CCN(C(=O)C2(O)CC2)CC1 [1-{4-[3-fluoro-4-(6-fluoro-1,3-benzoxazol-2-yl)benzoyl]piperazine-1-carbonyl}cyclopropan-1-ol], O=C(c1ccc(N2CCc3ccccc3C2)cc1)N1CCN(C(=O)C2(O)CC2)CC1 [1-{4-[4-(1,2,3,4-tetrahydroisoquinolin-2-yl)benzoyl]piperazine-1-carbonyl}cyclopropan-1-ol], Cc1nn(C)c2ccc(-c3ccc(C(=O)N4CCN(C(=O)C5(N)CCC5)CC4)c(F)c3)cc12 [1-{4-[4-(1,3-dimethyl-1H-indazol-5-yl)-2-fluorobenzoyl]piperazine-1-carbonyl}cyclobutan-1-amine], Cc1nn(C)c2ccc(-c3ccc(C(=O)N4CCN(C(=O)C5(N)CC5)CC4)c(F)c3)cc12 [1-{4-[4-(1,3-dimethyl-1H-indazol-5-yl)-2-fluorobenzoyl]piperazine-1-carbonyl}cyclopropan-1-amine], Cc1nn(C)c2ccc(-c3ccc(C(=O)N4CCN(C(=O)C5(O)CC5)CC4)c(F)c3)cc12 [1-{4-[4-(1,3-dimethyl-1H-indazol-5-yl)-2-fluorobenzoyl]piperazine-1-carbonyl}cyclopropan-1-ol], Cc1nn(C)c2ccc(-c3ccc(C(=O)N4CCN(C(=O)C5(O)CC5)CC4)cc3F)cc12 [1-{4-[4-(1,3-dimethyl-1H-indazol-5-yl)-3-fluorobenzoyl]piperazine-1-carbonyl}cyclopropan-1-ol], Cc1nn(C)c2ccc(-c3ccc(C(=O)N4CCN(C(=O)C5(N)CCC5)CC4)cc3)cc12 [1-{4-[4-(1,3-dimethyl-1H-indazol-5-yl)benzoyl]piperazine-1-carbonyl}cyclobutan-1-amine], O=C(c1ccc(-c2ccc3c(cnn3C3CC3)c2)cc1)N1CCN(C(=O)C2(O)CC2)CC1 [1-{4-[4-(1-cyclopropyl-1H-indazol-5-yl)benzoyl]piperazine-1-carbonyl}cyclopropan-1-ol], CS(=O)(=O)n1ccc2ccc(-c3ccc(C(=O)N4CCN(C(=O)C5(O)CC5)CC4)cc3)cc21 [1-{4-[4-(1-methanesulfonyl-1H-indol-6-yl)benzoyl]piperazine-1-carbonyl}cyclopropan-1-ol], Cn1cnc2cc(-c3ccc(C(=O)N4CCN(C(=O)C5(O)CC5)CC45CC5)cc3)ccc21 [1-{4-[4-(1-methyl-1H-1,3-benzodiazol-5-yl)benzoyl]-4,7-diazaspiro[2.5]octane-7-carbonyl}cyclopropan-1-ol], Cn1cnc2cc(-c3ccc(C(=O)N4CCN(C(=O)C5(O)CCC5)CC4)cc3)ccc21 [1-{4-[4-(1-methyl-1H-1,3-benzodiazol-5-yl)benzoyl]piperazine-1-carbonyl}cyclobutan-1-ol], Cn1cnc2cc(-c3ccc(C(=O)N4CCN(C(=O)C5(N)CC5)CC4)cc3)ccc21 [1-{4-[4-(1-methyl-1H-1,3-benzodiazol-5-yl)benzoyl]piperazine-1-carbonyl}cyclopropan-1-amine], Cn1ncc2ccc(-c3ccc(C(=O)N4CCN(C(=O)C5(N)CCC5)CC4)cc3)cc21 [1-{4-[4-(1-methyl-1H-indazol-6-yl)benzoyl]piperazine-1-carbonyl}cyclobutan-1-amine], O=C(c1ccc(-n2cnc3ccccc32)cc1)N1CCN(C(=O)C2(O)CC2)CC1 [1-{4-[4-(1H-1,3-benzodiazol-1-yl)benzoyl]piperazine-1-carbonyl}cyclopropan-1-ol], O=C(c1ccc(-c2cccc3[nH]cnc23)cc1Cl)N1CCN(C(=O)C2(O)CC2)CC1 [1-{4-[4-(1H-1,3-benzodiazol-4-yl)-2-chlorobenzoyl]piperazine-1-carbonyl}cyclopropan-1-ol], O=C(c1ccc(-n2ncc3ccccc32)cc1)N1CCN(C(=O)C2(O)CC2)CC1 [1-{4-[4-(1H-indazol-1-yl)benzoyl]piperazine-1-carbonyl}cyclopropan-1-ol], O=C(c1ccc(-n2ccc3ccccc32)cc1)N1CCN(C(=O)C2(O)CC2)CC1 [1-{4-[4-(1H-indol-1-yl)benzoyl]piperazine-1-carbonyl}cyclopropan-1-ol], O=C(c1ccc(N2CCCc3ccccc3C2)cc1)N1CCN(C(=O)C2(O)CC2)CC1 [1-{4-[4-(2,3,4,5-tetrahydro-1H-2-benzazepin-2-yl)benzoyl]piperazine-1-carbonyl}cyclopropan-1-ol], O=C(c1ccc(N2CCc3ccccc3CC2)cc1)N1CCN(C(=O)C2(O)CC2)CC1 [1-{4-[4-(2,3,4,5-tetrahydro-1H-3-benzazepin-3-yl)benzoyl]piperazine-1-carbonyl}cyclopropan-1-ol], O=C(c1ccc(N2CCc3ccccc32)cc1)N1CCN(C(=O)C2(O)CC2)CC1 [1-{4-[4-(2,3-dihydro-1H-indol-1-yl)benzoyl]piperazine-1-carbonyl}cyclopropan-1-ol], O=C(c1ccc(N2Cc3ccccc3C2)cc1)N1CCN(C(=O)C2(O)CC2)CC1 [1-{4-[4-(2,3-dihydro-1H-isoindol-2-yl)benzoyl]piperazine-1-carbonyl}cyclopropan-1-ol], O=C(c1ccc(-c2ccc3nn(C4CC4)cc3c2)cc1)N1CCN(C(=O)C2(O)CC2)CC1 [1-{4-[4-(2-cyclopropyl-2H-indazol-5-yl)benzoyl]piperazine-1-carbonyl}cyclopropan-1-ol], Cc1nc2ccccc2n1-c1ccc(C(=O)N2CCN(C(=O)C3(O)CC3)CC2)cc1 [1-{4-[4-(2-methyl-1H-1,3-benzodiazol-1-yl)benzoyl]piperazine-1-carbonyl}cyclopropan-1-ol], Cc1nc2cc(-c3ccc(C(=O)N4CCN(C(=O)C5(O)CC5)CC4)cc3)ccc2[nH]1 [1-{4-[4-(2-methyl-1H-1,3-benzodiazol-5-yl)benzoyl]piperazine-1-carbonyl}cyclopropan-1-ol], Cc1[nH]c2ccccc2c1-c1ccc(C(=O)N2CCN(C(=O)C3(O)CC3)CC2)cc1 [1-{4-[4-(2-methyl-1H-indol-3-yl)benzoyl]piperazine-1-carbonyl}cyclopropan-1-ol], CC1Cc2ccccc2N1c1ccc(C(=O)N2CCN(C(=O)C3(O)CC3)CC2)cc1 (stereo not shown) [1-{4-[4-(2-methyl-2,3-dihydro-1H-indol-1-yl)benzoyl]piperazine-1-carbonyl}cyclopropan-1-ol], Nc1noc2ccc(-c3ccc(C(=O)N4CCN(C(=O)C5(O)CC5)CC4)cc3)cc12 [1-{4-[4-(3-amino-1,2-benzoxazol-5-yl)benzoyl]piperazine-1-carbonyl}cyclopropan-1-ol], Nc1noc2cc(-c3ccc(C(=O)N4CCN(C(=O)C5(O)CC5)CC4)cc3)ccc12 [1-{4-[4-(3-amino-1,2-benzoxazol-6-yl)benzoyl]piperazine-1-carbonyl}cyclopropan-1-ol], Nc1n[nH]c2ccc(-c3ccc(C(=O)N4CCN(C(=O)C5(O)CC5)CC4)cc3)cc12 [1-{4-[4-(3-amino-1H-indazol-5-yl)benzoyl]piperazine-1-carbonyl}cyclopropan-1-ol]
